From patent US10745401B2, “Condensed lactam derivative” (Sumitomo Dainippon Pharma Co., Ltd., priority 2018, dated 2020)

Key:
human 5-HT1A receptor [1] = target: T1, human 5-HT1A receptor (Homo sapiens (Human), UniProt P08908); experiment: Test 1: binding activity for human 5-HT1A receptor ([3H]8-OH-DPAT, CHO cell membrane fraction)
In short: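 Membranes incubated with [3H]8-OH-DPAT and compound for 60 min at room temperature, then filtered on polyethylenimine-coated glass-fibre plates and counted by liquid scintillation. IC50 from Hill analysis; Ki = IC50/(1+S/Kd), Kd from saturation binding on the same membranes.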

human D2 receptor = human D2 receptor (Homo sapiens (Human), UniProt P14416); experiment: Test 1: binding activity for human D2 receptor ([3H]Spiperone, CHO cell membrane fraction); settings: human D2 receptor, [3H]Spiperone
In short: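 Compound displacement of [3H]ketanserin at 5-HT2A or [3H]spiperone at D2 was measured in CHO membrane fractions after 60 min at room temperature, with filtration and scintillation counting. IC50 was converted to Ki by Cheng–Prusoff using ligand concentration and Kd from saturation binding.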

hERG channel = hERG channel (Homo sapiens (Human), UniProt Q12809); experiment: Test 6-1: inhibitory activity for hERG channel (auto patch clamp, Qpatch); type: cell-based; settings: whole cell auto patch clamp, hERG-CHO cells; read-out: hERG inhibition IC50
In short: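 Whole-cell patch clamp on an automated system using CHO cells stably expressing human hERG (IKr); 15 s pulse interval. Four increasing compound concentrations applied cumulatively; mean peak tail current from last 3 stimulations per concentration used. IC50 from inhibition versus pre-compound current, fitted by Hill equation.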

[2] = Test 4: metabolic stability test in human hepatic microsome; type: in vitro ADME; settings: 0.1 mg/mL microsome, 0.1 μmol/L compound, 37° C., 30 minutes
In short: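 LC-MS quantified remaining parent after 30 min, 37° C, in pH 7.4 25 mmol/L phosphate containing 0.1 mg/mL human hepatic microsomes, 3.2 mmol/L NADPH and 0.1 μmol/L test compound. Value given as −LN(residual ratio)/30/0.1, mL/min/mg protein.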

human 5-HT1A receptor [3] = target: T1, human 5-HT1A receptor; experiment: Test 2: agonist activity for human 5-HT1A receptor ([35S]GTPγS binding); type: biochemical; settings: for EC50: [35S]GTPγS binding, concentration at which half the activity of Emax was obtained; for Emax at 10 µM: agonist activity in the presence of 10 μM of compound, relative to 100 μmol/L 5-HT
In short: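 [35S]GTPγS binding read-out: after 60 min at room temperature with test compound in GDP buffer, human 5-HT1A receptor CHO membranes were vacuum-filtered and retained radioactivity scintillation-counted. Agonist activity calculated by formula.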

Chain of hERG channel (Q12809 whole entry): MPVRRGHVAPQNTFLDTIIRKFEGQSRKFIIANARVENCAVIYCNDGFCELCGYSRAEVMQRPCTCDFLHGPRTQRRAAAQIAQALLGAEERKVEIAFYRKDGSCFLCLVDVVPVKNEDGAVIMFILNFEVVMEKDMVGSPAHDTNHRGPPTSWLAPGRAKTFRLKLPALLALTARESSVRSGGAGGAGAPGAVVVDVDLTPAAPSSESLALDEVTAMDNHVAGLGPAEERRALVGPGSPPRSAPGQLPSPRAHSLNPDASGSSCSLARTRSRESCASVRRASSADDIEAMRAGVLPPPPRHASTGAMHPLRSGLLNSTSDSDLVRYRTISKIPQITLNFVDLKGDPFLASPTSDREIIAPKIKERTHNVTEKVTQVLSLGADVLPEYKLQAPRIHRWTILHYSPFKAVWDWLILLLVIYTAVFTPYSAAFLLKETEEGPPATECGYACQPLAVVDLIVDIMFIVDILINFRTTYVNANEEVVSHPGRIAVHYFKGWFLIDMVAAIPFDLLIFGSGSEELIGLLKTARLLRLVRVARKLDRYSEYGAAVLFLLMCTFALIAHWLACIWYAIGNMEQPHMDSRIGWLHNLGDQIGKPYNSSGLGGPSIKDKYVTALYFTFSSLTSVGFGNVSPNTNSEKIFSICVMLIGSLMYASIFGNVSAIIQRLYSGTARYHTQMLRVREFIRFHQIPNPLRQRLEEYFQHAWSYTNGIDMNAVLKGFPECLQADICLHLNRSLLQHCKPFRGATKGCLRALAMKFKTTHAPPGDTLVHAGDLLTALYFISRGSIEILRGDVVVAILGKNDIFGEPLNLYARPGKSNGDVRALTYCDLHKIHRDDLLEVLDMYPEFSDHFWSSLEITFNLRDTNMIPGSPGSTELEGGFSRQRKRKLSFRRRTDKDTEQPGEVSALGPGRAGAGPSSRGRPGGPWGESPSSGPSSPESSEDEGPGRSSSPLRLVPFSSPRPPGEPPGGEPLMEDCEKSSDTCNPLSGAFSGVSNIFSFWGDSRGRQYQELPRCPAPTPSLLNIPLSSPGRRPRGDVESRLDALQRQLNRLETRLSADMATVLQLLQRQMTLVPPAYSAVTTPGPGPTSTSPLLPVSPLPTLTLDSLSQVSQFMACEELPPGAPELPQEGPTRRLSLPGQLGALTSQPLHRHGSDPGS
T1 sequence (P08908 whole entry): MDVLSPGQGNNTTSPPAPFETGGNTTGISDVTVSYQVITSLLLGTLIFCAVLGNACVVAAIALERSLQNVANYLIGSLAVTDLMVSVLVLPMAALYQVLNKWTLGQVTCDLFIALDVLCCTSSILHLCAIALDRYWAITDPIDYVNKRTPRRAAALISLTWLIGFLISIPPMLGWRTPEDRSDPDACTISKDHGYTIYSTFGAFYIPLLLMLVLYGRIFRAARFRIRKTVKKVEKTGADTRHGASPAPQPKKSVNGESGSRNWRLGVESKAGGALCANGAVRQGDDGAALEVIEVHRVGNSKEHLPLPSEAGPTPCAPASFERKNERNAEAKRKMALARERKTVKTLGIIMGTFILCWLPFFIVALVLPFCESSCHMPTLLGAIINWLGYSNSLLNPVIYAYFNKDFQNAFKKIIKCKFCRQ
Chain of human D2 receptor (P14416 whole entry): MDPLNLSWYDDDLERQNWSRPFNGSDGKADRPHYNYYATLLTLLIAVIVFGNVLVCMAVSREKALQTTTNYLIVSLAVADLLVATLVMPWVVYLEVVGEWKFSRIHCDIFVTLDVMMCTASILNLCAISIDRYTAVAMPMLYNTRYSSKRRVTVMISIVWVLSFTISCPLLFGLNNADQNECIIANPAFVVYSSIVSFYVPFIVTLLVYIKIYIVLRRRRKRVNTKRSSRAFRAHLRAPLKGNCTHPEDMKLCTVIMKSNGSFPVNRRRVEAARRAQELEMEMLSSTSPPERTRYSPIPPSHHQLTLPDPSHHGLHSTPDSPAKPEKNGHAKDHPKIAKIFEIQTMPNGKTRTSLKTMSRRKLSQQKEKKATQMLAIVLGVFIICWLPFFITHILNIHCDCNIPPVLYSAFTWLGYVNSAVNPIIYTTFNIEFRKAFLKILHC

| SMILES | Ki (human 5-HT1A receptor [1]) [µM] | Ki (human D2 receptor) [µM] | IC50 (hERG channel) [µM] | Metabolic stability in human hepatic microsome [2] [mL/min/mg protein] | EC50 (human 5-HT1A receptor [3]) [µM] | Emax at 10 µM (human 5-HT1A receptor [3]) [%] |
| --- | --- | --- | --- | --- | --- | --- |
| O=C1c2cnccc2C2(CC2)CN1CCN1CCN(c2noc3ccccc23)CC1 [Example 136] | 0.0759 | 2.3 | 6 | 0.598 | 0.562 | 30 |
| O=C1c2cnc(Br)cc2CCN1CCN1CCN(c2nsc3ccccc23)CC1 [Example 62] | 0.0001 | 0.222 | 1.5 | 0.505 | 0.00101 | 62 |
| N#Cc1cc2c(cn1)C(=O)N(CCN1CCN(c3nsc4ccccc34)CC1)CC2 [Example 102, 7-{2-[4-(1,2-Benzoisothiazol-3-yl)piperazin-1-yl]ethyl}-8-oxo-5,6,7,8-tetrahydro-2,7-naphthyridine-3-carbonitrile] | 0.00025 | 0.852 | 1 | 0.194 | 0.0011 | 74 |
| O=C1c2cn(C3CC3)nc2CCN1CCN1CCN(c2nsc3ccccc23)CC1 [Example 75] | 0.00239 | 0.21 | 1.2 | 0.174 | 0.00713 | 56 |
| Cc1n[nH]c2c1C(=O)N(CCN1CCC(c3noc4ccccc34)CC1)CC2 [Example 99, 5-{2-[4-(1,2-Benzoisoxazol-3-yl)piperidin-1-yl]ethyl}-3-methyl-1,5,6,7-tetrahydro-4H-pyrazolo[4,3-c]pyridin-4-one] | 0.0215 | 0.28 | 2.9 | <0.01 | 0.185 | 40 |
| O=C1c2sccc2CCN1CCN1CCC(c2noc3ccccc23)CC1 [Example 126] | 0.0159 | 0.093 | < 0.3 | 0.135 | 0.0672 | 60 |
| O=C1c2ncccc2CCN1CCN1CCN(c2nsc3cc(F)ccc23)CC1 [Example 27] | 0.00604 | 0.23 | 1.3 | 0.048 | 0.0554 | 58 |
| O=c1c2ncccc2ccn1CCN1CCC(c2noc3cc(F)ccc23)CC1 [Example 12] | 0.00703 | 0.311 | 0.3 | 0.02 | 0.096 | 32 |
| O=C1c2ncccc2CCN1CCN1CCC(c2noc3ccc(F)cc23)CC1 [Example 5] | 0.00578 | 7.83 | 2.4 | <0.01 | 0.0916 | 60 |
| Cn1cnc2c1C(=O)N(CCN1CCC(c3noc4ccccc34)CC1)CCC2 [Example 134] | 0.0653 | 0.31 | 3.5 | <0.05 | 0.221 | 41 |
| Cn1ncc2c1C(=O)N(CCN1CCC(c3noc4ccccc34)CC1)CCC2 [Example 155] | 0.014 | 0.114 | 0.7 | 0.121 | 0.0742 | 63 |
| Cn1cc2c(n1)CCCN(CCN1CCN(c3nsc4ccccc34)CC1)C2=O [Example 42] | 0.00219 | 0.119 | 2.4 | 0.100 | 0.0235 | 57 |
| CC1CN(CCN2CCN(c3nsc4ccccc34)CC2)C(=O)c2ccn(C)c21 (stereo not drawn) [Example 79] | 0.00019 | 0.239 | 4.5 | 0.409 | 0.00621 | 63 |
| Cc1ccc2onc(C3CCN(CCN4CCc5cccnc5C4=O)CC3)c2c1 [Example 89] | 0.00344 | 2.25 | 1.3 | 0.050 | 0.0538 | 39 |
| Cn1c(F)cc2c1CCN(CCN1CCN(c3nsc4ccccc34)CC1)C2=O [Example 112, 5-{2-[4-(1,2-Benzoisothiazol-3-yl)piperazin-1-yl]ethyl}-2-fluoro-1-methyl-1,5,6,7-tetrahydro-4H-pyrrolo[3,2-c]pyridin-4-one] | 0.00158 | 0.169 | 2.2 | 0.459 | 0.00944 | 64 |
| Cc1c2c(nn1C)CCN(CCN1CCN(c3nsc4ccccc34)CC1)C2=O [Example 65] | 0.0009 | 0.222 | 4.4 | 0.126 | 0.0021 | 72 |
| Cn1cc2c(n1)CCCN(CCN1CCC(c3noc4ccccc34)CC1)C2=O [Example 41] | 0.0109 | 0.131 | 0.5 | <0.01 | 0.0793 | 45 |
| Cn1ncc2c1CCN(CCN1CCN(c3nsc4ccccc34)CC1)C2=O [Example 63] | 0.0065 | 0.791 | 7.8 | <0.01 | 0.016 | 73 |
| O=C1c2cn(C3CC3)nc2CCN1CCN1CCC(c2noc3ccccc23)CC1 [Example 76] | 0.00648 | 0.472 | < 0.27 | 0.018 | 0.00413 | 35 |
| Cc1noc2c1C(=O)N(CCN1CCC(c3noc4ccccc34)CC1)CC2 [Example 33] | 0.00935 | 1.01 | 0.6 | 0.074 | 0.463 | 49 |
| Cc1cc2c(cn1)C(=O)N(CCN1CCN(c3noc4ccccc34)CC1)CC21CC1 [Example 21] | 0.00862 | 2.12 | 8 | 0.323 | 0.018 | 59 |
| O=C1c2nc[nH]c2CCN1CCN1CCC(c2noc3ccccc23)CC1 [Example 191, 5-{2-[4-(1,2-Benzoisoxazol-3-yl)piperidin-1-yl]ethyl}-6,7-dihydro[1,3]imidazolo[4,5-c]pyridin-4(5H)-one] | 0.817 | 0.286 | 2.6 | <0.05 | 4.26 | 14 |
